From publication doi:10.1101/2024.08.19.608619, “Discovery of potent SARS-CoV-2 nsp3 macrodomain inhibitors uncovers lack of translation to cellular antiviral response” (bioRxiv, 2024)
Read-outs that look alike come from different tables or passages of the source.

Assays:
SARS-CoV-2 nsp3-mac1 [1] = biological target: T1, SARS-CoV-2 nsp3-mac1 (Severe acute respiratory syndrome coronavirus 2, UniProt P0DTD1); assay: biochemical; parameters: SARS-CoV-2 nsp3 macrodomain TR-FRET single point, per cent inhibition, n=2
SARS-CoV-2 nsp3-mac1 [2] = biological target: T1, SARS-CoV-2 nsp3-mac1; assay: biochemical; type: biochemical; settings: SARS-CoV-2 nsp3 macrodomain TR-FRET single point
[3] = read-out: perc_inhibition_mean, batch_name=ASAP-0000203-002
[4] = read-out: perc_inhibition_mean, batch_name=ASAP-0000242-001
[5] = read-out: perc_inhibition_mean, batch_name=ASAP-0000243-001
[6] = read-out: perc_inhibition_mean, batch_name=ASAP-0000244-001
[7] = read-out: perc_inhibition_mean, batch_name=ASAP-0000245-001
[8] = read-out: perc_inhibition_mean, batch_name=ASAP-0000246-001
[9] = read-out: perc_inhibition_mean, batch_name=ASAP-0000247-001
[10] = read-out: perc_inhibition_mean, batch_name=ASAP-0000248-001
[11] = read-out: perc_inhibition_mean, batch_name=ASAP-0000249-001
[12] = read-out: perc_inhibition_mean, batch_name=ASAP-0000250-001
[13] = read-out: perc_inhibition_mean, batch_name=ASAP-0000251-001
[14] = read-out: perc_inhibition_mean, batch_name=ASAP-0000252-001
[15] = read-out: perc_inhibition_mean, batch_name=ASAP-0000253-001
[16] = read-out: perc_inhibition_mean, batch_name=ASAP-0000254-001
[17] = read-out: perc_inhibition_mean, batch_name=ASAP-0000255-001
[18] = read-out: perc_inhibition_mean, batch_name=ASAP-0000257-001

Q: `CC[C@@H]1C[C@@H](C(=O)Nc2ncnc3[nH]c(C)c(C)c23)CCO1` [ASAP-0000201] was tested. Which inhibition at 50 µM (SARS-CoV-2 nsp3-mac1 [1]; read-out: perc_inhibition_mean, batch_name=ASAP-0000201-001) did it give?
A: 12.1%

Q: And the perc_inhibition_mean (SARS-CoV-2 nsp3-mac1 [2]; concentration 50.0 uM)?
A: 12.08%

Q: How did the inhibition at 50 µM (SARS-CoV-2 nsp3-mac1 [1]; read-out: perc_inhibition_mean, batch_name=ASAP-0000202-001) turn out when `COCc1cc(CNc2cc3c(O)ncnc3cn2)no1` [ASAP-0000202] was run?
A: 3.31%

Q: And the perc_inhibition_mean (SARS-CoV-2 nsp3-mac1 [2]; concentration 50.0 uM)?
A: 3.308%

Q: What does the source list for `Cc1ccc(-c2n[nH]cc2CNc2cnc3[nH]ncc3c2)o1` [ASAP-0000203]?
A: inhibition at 50 µM (SARS-CoV-2 nsp3-mac1 [1]; read-out: perc_inhibition_mean, batch_name=ASAP-0000203-001): 7.23%; inhibition at 50 µM (SARS-CoV-2 nsp3-mac1 [1]; [3]): -21.6%; inhibition at 100 µM (SARS-CoV-2 nsp3-mac1 [1]; [3]): -24.8%; perc_inhibition_mean (SARS-CoV-2 nsp3-mac1 [2]; concentration 50.0 uM): 7.232%; perc_inhibition_mean (SARS-CoV-2 nsp3-mac1 [2]; concentration 50.0 uM, n=2): -21.592%; perc_inhibition_mean (SARS-CoV-2 nsp3-mac1 [2]; concentration 100.0 uM, n=2): -24.84%

Q: How did the inhibition at 50 µM (SARS-CoV-2 nsp3-mac1 [1]; [4]) turn out when `Cn1cnc2c(Nc3cncc(CN)c3)nc(N)nc21` [ASAP-0000242] was run?
A: -14.2%

Q: What about the inhibition at 100 µM (SARS-CoV-2 nsp3-mac1 [1]; [4]) of the same compound?
A: -28.3%

Q: And the perc_inhibition_mean (SARS-CoV-2 nsp3-mac1 [2]; concentration 50.0 uM)?
A: -14.217%

Q: What about the perc_inhibition_mean (SARS-CoV-2 nsp3-mac1 [2]; concentration 100.0 uM) of the same compound?
A: -28.278%

Q: For `CO[C@@]1(C(=O)O)CCN(C(=O)c2ncnc3[nH]ccc23)C1` [ASAP-0000243], which inhibition at 50 µM (SARS-CoV-2 nsp3-mac1 [1]; [5]) is on record?
A: -4.18%

Q: And the inhibition at 100 µM (SARS-CoV-2 nsp3-mac1 [1]; [5])?
A: -3.71%

Q: And the perc_inhibition_mean (SARS-CoV-2 nsp3-mac1 [2]; concentration 50.0 uM)?
A: -4.181%

Q: What about the perc_inhibition_mean (SARS-CoV-2 nsp3-mac1 [2]; concentration 100.0 uM) of the same compound?
A: -3.71%

Q: What does the source list for `C[C@]1(C(=O)O)CCCN1C(=O)c1ncnc2[nH]ccc12` [ASAP-0000244]?
A: inhibition at 50 µM (SARS-CoV-2 nsp3-mac1 [1]; [6]): -5.29%; inhibition at 100 µM (SARS-CoV-2 nsp3-mac1 [1]; [6]): 5.67%; perc_inhibition_mean (SARS-CoV-2 nsp3-mac1 [2]; concentration 50.0 uM): -5.285%; perc_inhibition_mean (SARS-CoV-2 nsp3-mac1 [2]; concentration 100.0 uM): 5.665%

Q: For `FC(F)(F)Oc1ccccc1-c1ncnc2[nH]ccc12` [ASAP-0000245], which inhibition at 50 µM (SARS-CoV-2 nsp3-mac1 [1]; [7]) is on record?
A: -3.37%

Q: What about the inhibition at 100 µM (SARS-CoV-2 nsp3-mac1 [1]; [7]) of the same compound?
A: 2.12%

Q: And the perc_inhibition_mean (SARS-CoV-2 nsp3-mac1 [2]; concentration 50.0 uM)?
A: -3.369%

Q: And the perc_inhibition_mean (SARS-CoV-2 nsp3-mac1 [2]; concentration 100.0 uM)?
A: 2.117%

Q: What does the source list for `Clc1cnc(OCCNc2ncnc3[nH]ccc23)c(Cl)c1` [ASAP-0000246]?
A: inhibition at 50 µM (SARS-CoV-2 nsp3-mac1 [1]; [8]): -4.3%; inhibition at 100 µM (SARS-CoV-2 nsp3-mac1 [1]; [8]): -7.69%; perc_inhibition_mean (SARS-CoV-2 nsp3-mac1 [2]; concentration 50.0 uM): -4.296%; perc_inhibition_mean (SARS-CoV-2 nsp3-mac1 [2]; concentration 100.0 uM): -7.687%

Q: `CO[C@@H](CNc1ncnc2[nH]ccc12)c1cccc(Cl)c1` [ASAP-0000247] was tested. Which inhibition at 50 µM (SARS-CoV-2 nsp3-mac1 [1]; [9]) did it give?
A: 4.1%

Q: What about the inhibition at 100 µM (SARS-CoV-2 nsp3-mac1 [1]; [9]) of the same compound?
A: 14.2%

Q: What about the perc_inhibition_mean (SARS-CoV-2 nsp3-mac1 [2]; concentration 50.0 uM) of the same compound?
A: 4.096%

Q: What about the perc_inhibition_mean (SARS-CoV-2 nsp3-mac1 [2]; concentration 100.0 uM) of the same compound?
A: 14.175%

Q: What does the source list for `O=C(NCc1ccc(Cl)cn1)c1ncnc2[nH]ccc12` [ASAP-0000248]?
A: inhibition at 50 µM (SARS-CoV-2 nsp3-mac1 [1]; [10]): -4.96%; inhibition at 100 µM (SARS-CoV-2 nsp3-mac1 [1]; [10]): -2.57%; perc_inhibition_mean (SARS-CoV-2 nsp3-mac1 [2]; concentration 50.0 uM): -4.958%; perc_inhibition_mean (SARS-CoV-2 nsp3-mac1 [2]; concentration 100.0 uM): -2.568%

Q: With `OC[C@H](Cc1ccccc1)Nc1ncnc2[nH]ccc12` [ASAP-0000249] as the compound, how does the inhibition at 50 µM (SARS-CoV-2 nsp3-mac1 [1]; [11]) read?
A: -1.29%

Q: And the inhibition at 100 µM (SARS-CoV-2 nsp3-mac1 [1]; [11])?
A: 8.93%

Q: What about the perc_inhibition_mean (SARS-CoV-2 nsp3-mac1 [2]; concentration 50.0 uM) of the same compound?
A: -1.29%

Q: And the perc_inhibition_mean (SARS-CoV-2 nsp3-mac1 [2]; concentration 100.0 uM)?
A: 8.928%

Q: What does the source list for `CN(Cc1nccn1Cc1ccccc1)c1ncnc2[nH]ccc12` [ASAP-0000250]?
A: inhibition at 50 µM (SARS-CoV-2 nsp3-mac1 [1]; [12]): -7.22%; inhibition at 100 µM (SARS-CoV-2 nsp3-mac1 [1]; [12]): -8.82%; perc_inhibition_mean (SARS-CoV-2 nsp3-mac1 [2]; concentration 50.0 uM): -7.218%; perc_inhibition_mean (SARS-CoV-2 nsp3-mac1 [2]; concentration 100.0 uM): -8.82%

Q: How did the inhibition at 50 µM (SARS-CoV-2 nsp3-mac1 [1]; [13]) turn out when `Clc1cnc(N2CCN(c3ncnc4[nH]ccc34)CC2)c(Cl)c1` [ASAP-0000251] was run?
A: -2%

Q: And the inhibition at 100 µM (SARS-CoV-2 nsp3-mac1 [1]; [13])?
A: -6.57%

Q: What about the perc_inhibition_mean (SARS-CoV-2 nsp3-mac1 [2]; concentration 50.0 uM) of the same compound?
A: -1.996%

Q: What about the perc_inhibition_mean (SARS-CoV-2 nsp3-mac1 [2]; concentration 100.0 uM) of the same compound?
A: -6.565%

Q: For `c1nc(NCc2cnc3sccn23)c2[nH]cnc2n1` [ASAP-0000252], which inhibition at 50 µM (SARS-CoV-2 nsp3-mac1 [1]; [14]) is on record?
A: -4.78%

Q: And the inhibition at 100 µM (SARS-CoV-2 nsp3-mac1 [1]; [14])?
A: 5.65%

Q: What about the perc_inhibition_mean (SARS-CoV-2 nsp3-mac1 [2]; concentration 50.0 uM) of the same compound?
A: -4.782%

Q: What about the perc_inhibition_mean (SARS-CoV-2 nsp3-mac1 [2]; concentration 100.0 uM) of the same compound?
A: 5.65%

Q: For `Cc1cc(C(=O)Nc2[nH]nc3nc(O)ccc23)c2c(C)nn(C)c2n1` [ASAP-0000253], which inhibition at 50 µM (SARS-CoV-2 nsp3-mac1 [1]; [15]) is on record?
A: -6.17%

Q: What about the inhibition at 100 µM (SARS-CoV-2 nsp3-mac1 [1]; [15]) of the same compound?
A: -3.32%

Q: And the perc_inhibition_mean (SARS-CoV-2 nsp3-mac1 [2]; concentration 50.0 uM)?
A: -6.166%

Q: What about the perc_inhibition_mean (SARS-CoV-2 nsp3-mac1 [2]; concentration 100.0 uM) of the same compound?
A: -3.323%

Q: What does the source list for `Cc1ccc(O)c(CNc2ncnc3[nH]cnc23)n1` [ASAP-0000254]?
A: inhibition at 50 µM (SARS-CoV-2 nsp3-mac1 [1]; [16]): 0.262%; inhibition at 100 µM (SARS-CoV-2 nsp3-mac1 [1]; [16]): 6.28%; perc_inhibition_mean (SARS-CoV-2 nsp3-mac1 [2]; concentration 50.0 uM): 0.262%; perc_inhibition_mean (SARS-CoV-2 nsp3-mac1 [2]; concentration 100.0 uM): 6.284%

Q: Which inhibition at 50 µM (SARS-CoV-2 nsp3-mac1 [1]; [17]) does the source give for `O=C(NCc1cccc(F)n1)c1cnc2nc[nH]c(=O)c2c1` [ASAP-0000255] here?
A: -14.8%

Q: And the inhibition at 100 µM (SARS-CoV-2 nsp3-mac1 [1]; [17])?
A: -14.6%

Q: And the perc_inhibition_mean (SARS-CoV-2 nsp3-mac1 [2]; concentration 100.0 uM)?
A: -14.602%

Q: And the perc_inhibition_mean (SARS-CoV-2 nsp3-mac1 [2]; concentration 50.0 uM, n=2)?
A: -14.823%

Q: How did the inhibition at 50 µM (SARS-CoV-2 nsp3-mac1 [1]; [18]) turn out when `C(=C1CCCCC1)c1ncnc2[nH]ccc12` [ASAP-0000257] was run?
A: -5.46%

Q: What about the inhibition at 100 µM (SARS-CoV-2 nsp3-mac1 [1]; [18]) of the same compound?
A: 3.46%

Q: And the perc_inhibition_mean (SARS-CoV-2 nsp3-mac1 [2]; concentration 50.0 uM, n=2)?
A: -5.46%

Q: And the perc_inhibition_mean (SARS-CoV-2 nsp3-mac1 [2]; concentration 100.0 uM, n=2)?
A: 3.464%
